Data: ChEMBL document CHEMBL1201862, “PubChem BioAssay data set” (2004)
Counter-ions that a name gives are not always drawn. Active and inactive are the calls of the source.

Experiments:
[1] = target: T1, Sentrin-specific protease 7 (Homo sapiens, UniProt Q9BQF6); experiment: SENP7 protease inhibitors, SAR follow-up, biochemical, luminescence, set 2 (AID 588600); type: functional
T1 sequence (Q9BQF6 whole entry): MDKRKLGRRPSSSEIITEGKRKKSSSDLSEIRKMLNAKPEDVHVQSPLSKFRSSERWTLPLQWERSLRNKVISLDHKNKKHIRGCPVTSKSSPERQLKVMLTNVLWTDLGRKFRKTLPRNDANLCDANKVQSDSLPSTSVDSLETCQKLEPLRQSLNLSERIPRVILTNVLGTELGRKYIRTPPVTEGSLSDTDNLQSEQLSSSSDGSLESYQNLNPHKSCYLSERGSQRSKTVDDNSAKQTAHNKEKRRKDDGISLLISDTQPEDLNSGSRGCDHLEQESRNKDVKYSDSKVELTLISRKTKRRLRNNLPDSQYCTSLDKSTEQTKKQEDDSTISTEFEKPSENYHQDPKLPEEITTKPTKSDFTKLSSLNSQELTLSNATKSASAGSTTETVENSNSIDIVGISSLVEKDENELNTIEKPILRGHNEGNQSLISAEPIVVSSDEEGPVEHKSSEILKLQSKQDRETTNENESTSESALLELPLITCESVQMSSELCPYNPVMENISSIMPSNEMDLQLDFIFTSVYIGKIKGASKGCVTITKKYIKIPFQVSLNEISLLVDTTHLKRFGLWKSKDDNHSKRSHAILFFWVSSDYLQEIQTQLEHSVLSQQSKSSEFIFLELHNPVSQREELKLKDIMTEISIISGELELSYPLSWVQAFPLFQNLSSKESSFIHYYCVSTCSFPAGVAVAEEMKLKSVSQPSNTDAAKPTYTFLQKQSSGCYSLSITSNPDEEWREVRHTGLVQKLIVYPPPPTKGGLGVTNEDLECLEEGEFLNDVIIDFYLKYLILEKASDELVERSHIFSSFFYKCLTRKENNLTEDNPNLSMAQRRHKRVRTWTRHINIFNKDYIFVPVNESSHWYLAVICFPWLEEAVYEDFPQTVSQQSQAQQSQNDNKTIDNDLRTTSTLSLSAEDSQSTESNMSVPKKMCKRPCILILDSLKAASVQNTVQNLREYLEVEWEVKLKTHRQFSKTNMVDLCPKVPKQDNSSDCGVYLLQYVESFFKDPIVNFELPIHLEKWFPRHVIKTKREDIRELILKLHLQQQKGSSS

[2] = target: T2, Sentrin-specific protease 6 (Homo sapiens, UniProt Q9GZR1); experiment: SAR Analysis of small molecule inhibitors of Sentrin-specific protease 6 (SENP6) using a Luminescent assay. [Related pubchem assays (depositor defined):AID2582, AID2599]; type: functional
T2 sequence (Q9GZR1 whole entry): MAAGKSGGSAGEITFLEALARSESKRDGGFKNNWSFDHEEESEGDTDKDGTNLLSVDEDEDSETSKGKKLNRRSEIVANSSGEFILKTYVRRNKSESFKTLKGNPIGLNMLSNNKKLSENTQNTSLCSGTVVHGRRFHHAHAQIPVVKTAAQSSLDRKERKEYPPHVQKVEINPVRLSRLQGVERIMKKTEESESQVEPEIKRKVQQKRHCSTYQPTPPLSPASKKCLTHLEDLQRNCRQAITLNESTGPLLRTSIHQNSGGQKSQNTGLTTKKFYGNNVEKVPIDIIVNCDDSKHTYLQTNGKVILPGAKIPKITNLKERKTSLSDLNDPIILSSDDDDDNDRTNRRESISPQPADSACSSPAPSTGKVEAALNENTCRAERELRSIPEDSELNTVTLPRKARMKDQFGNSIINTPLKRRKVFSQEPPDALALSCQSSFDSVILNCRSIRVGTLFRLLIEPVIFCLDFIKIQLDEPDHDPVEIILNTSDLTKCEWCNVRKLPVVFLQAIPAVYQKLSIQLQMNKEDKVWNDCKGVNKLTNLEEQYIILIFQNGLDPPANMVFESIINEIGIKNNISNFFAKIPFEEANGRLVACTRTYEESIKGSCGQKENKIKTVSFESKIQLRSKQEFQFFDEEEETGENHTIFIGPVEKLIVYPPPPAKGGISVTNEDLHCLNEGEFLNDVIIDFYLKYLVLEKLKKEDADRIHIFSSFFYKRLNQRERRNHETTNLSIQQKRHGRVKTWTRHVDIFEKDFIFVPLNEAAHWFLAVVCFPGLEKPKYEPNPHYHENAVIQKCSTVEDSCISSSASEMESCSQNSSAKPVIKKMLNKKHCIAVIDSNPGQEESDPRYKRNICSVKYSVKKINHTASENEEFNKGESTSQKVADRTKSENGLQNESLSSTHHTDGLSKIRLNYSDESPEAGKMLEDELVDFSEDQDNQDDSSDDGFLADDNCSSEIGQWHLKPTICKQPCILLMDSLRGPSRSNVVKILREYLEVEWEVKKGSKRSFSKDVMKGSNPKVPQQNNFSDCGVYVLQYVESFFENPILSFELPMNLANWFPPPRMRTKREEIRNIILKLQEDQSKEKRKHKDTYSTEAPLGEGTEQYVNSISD

[3] = target: T1, Sentrin-specific protease 7; experiment: SENP7 protease inhibitors, SAR follow-up, biochemical, luminescence (AID 504497); type: functional
[4] = target: T3, Sentrin-specific protease 8 (Homo sapiens, UniProt Q96LD8); experiment: SENP8 protease inhibitors, SAR follow-up, biochemical, luminescence, set 2 (AID 588601); type: functional
T3 sequence (Q96LD8 whole entry): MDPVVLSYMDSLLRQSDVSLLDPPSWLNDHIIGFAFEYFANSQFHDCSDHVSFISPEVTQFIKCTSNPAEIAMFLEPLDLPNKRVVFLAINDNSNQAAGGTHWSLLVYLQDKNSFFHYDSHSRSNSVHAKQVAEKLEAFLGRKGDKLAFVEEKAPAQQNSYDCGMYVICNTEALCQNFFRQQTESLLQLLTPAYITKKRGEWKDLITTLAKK

[5] = target: T4, Caspase-3 (Homo sapiens, UniProt P42574); experiment: SAR Analysis of small molecule inhibitors of Sentrin-specific proteases (SENPs) using a Caspase-3 Selectivity assay. [Related pubchem assays (depositor defined):AID2540, AID2599, AID434973, AID489001]; type: functional
T4 sequence (P42574 whole entry): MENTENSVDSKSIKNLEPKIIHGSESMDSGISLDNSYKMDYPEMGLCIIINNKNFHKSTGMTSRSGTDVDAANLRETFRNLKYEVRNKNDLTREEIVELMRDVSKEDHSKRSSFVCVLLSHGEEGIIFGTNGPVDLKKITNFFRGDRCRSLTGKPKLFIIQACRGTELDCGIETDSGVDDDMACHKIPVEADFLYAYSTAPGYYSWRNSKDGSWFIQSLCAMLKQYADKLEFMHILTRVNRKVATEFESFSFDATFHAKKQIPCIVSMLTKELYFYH

[6] = target: T3, Sentrin-specific protease 8; experiment: SENP8 protease inhibitors, SAR follow-up, biochemical, luminescence (AID 504501); type: functional
[7] = target: T2, Sentrin-specific protease 6; experiment: SENP6 protease inhibitors, SAR follow-up, biochemical, luminescence, set 2 (AID 588598); type: functional
[8] = target: Cysteine protease ATG4B (Homo sapiens, UniProt Q9Y4P1); type: functional;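 note: Fluorescence-based dose-response confirmation assay measuring inhibition of ATG4B activity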
Sequence of Cysteine protease ATG4B (Q9Y4P1 whole entry): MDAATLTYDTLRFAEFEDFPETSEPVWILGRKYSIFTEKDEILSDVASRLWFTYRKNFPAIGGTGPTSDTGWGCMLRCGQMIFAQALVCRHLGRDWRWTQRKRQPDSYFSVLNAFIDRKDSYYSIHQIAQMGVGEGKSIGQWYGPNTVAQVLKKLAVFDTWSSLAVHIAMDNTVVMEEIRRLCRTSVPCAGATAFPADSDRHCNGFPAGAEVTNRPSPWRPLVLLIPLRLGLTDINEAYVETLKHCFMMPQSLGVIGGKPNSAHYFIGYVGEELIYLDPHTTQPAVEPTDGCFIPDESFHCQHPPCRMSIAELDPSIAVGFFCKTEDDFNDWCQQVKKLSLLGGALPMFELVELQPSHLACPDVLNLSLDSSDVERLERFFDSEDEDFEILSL

[9] = target: Phospholipase A2 (Homo sapiens, UniProt P04054); type: functional;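 note: confirmatory dose-response counterscreen on phospholipase A2, testing hits that came from an ultra-high-throughput screen for ATG4B inhibitors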
Sequence of Phospholipase A2 (P04054 whole entry): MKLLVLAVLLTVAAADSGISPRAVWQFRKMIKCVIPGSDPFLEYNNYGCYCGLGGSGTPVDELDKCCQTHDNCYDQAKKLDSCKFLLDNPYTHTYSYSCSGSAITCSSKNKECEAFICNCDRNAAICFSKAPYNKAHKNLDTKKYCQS

[10] = target: Heat shock protein HSP 90-alpha (Homo sapiens, UniProt P07900); type: functional, organism-based
[11] = target: Beta-2 adrenergic receptor (Homo sapiens, UniProt P07550); experiment: beta2AR agonists driving receptor internalization, dose response, cell-based, FAP fluorogen, flow cytometry, cherry pick 1 (AID 588763); type: functional
Sequence of Beta-2 adrenergic receptor (P07550 whole entry): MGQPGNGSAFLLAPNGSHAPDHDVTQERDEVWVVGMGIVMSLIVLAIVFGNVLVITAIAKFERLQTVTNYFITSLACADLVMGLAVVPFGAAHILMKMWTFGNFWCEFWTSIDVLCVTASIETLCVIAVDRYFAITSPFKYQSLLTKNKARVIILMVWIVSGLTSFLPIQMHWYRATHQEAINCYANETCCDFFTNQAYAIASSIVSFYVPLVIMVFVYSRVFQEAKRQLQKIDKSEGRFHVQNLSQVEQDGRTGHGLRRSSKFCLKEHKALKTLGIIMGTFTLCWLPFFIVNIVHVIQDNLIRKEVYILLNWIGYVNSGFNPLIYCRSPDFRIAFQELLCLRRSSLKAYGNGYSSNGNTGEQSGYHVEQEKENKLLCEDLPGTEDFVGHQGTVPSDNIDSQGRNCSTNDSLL

[12] = inhibitors of PGC1a acetylation in cells, dose response, cell-based, cherry-picked samples (AID 720514); type: functional;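 note: potency may reflect raised or lowered acetylation signal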
[13] = target: Beta Lactamase (Pseudomonas aeruginosa, UniProt Q932Y6); experiment: beta-lactamase reporter inhibitor potency, dose response, artefact control for TLR9-MyD88 binding inhibitor project, BLA reporter cells, FRET fluorescence (AID 588341); type: cell-based;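 note: cell based assay in CHO-K1 cells stably expressing beta-lactamase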
Sequence of Beta Lactamase (Q932Y6 whole entry, the tested form may be a part): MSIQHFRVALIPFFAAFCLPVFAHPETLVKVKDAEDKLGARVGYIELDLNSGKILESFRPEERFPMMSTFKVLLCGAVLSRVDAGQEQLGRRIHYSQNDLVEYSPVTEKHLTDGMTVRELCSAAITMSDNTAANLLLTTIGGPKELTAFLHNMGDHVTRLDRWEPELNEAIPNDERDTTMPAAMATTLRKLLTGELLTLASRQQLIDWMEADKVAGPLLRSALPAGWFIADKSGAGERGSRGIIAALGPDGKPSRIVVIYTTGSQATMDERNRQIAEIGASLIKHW

[14] = target: T5, Fatty acid synthase (Homo sapiens, UniProt P49327); experiment: FAS thioesterase domain inhibitors, dose response, biochemical, kinetic fluorescence intensity (AID 624326); type: functional;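 note: rate of fluorescence rise from hydrolysis of a fluorogenic O-methyl fluorescein ester substrate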
T5 sequence (P49327 whole entry, the tested form may be a part): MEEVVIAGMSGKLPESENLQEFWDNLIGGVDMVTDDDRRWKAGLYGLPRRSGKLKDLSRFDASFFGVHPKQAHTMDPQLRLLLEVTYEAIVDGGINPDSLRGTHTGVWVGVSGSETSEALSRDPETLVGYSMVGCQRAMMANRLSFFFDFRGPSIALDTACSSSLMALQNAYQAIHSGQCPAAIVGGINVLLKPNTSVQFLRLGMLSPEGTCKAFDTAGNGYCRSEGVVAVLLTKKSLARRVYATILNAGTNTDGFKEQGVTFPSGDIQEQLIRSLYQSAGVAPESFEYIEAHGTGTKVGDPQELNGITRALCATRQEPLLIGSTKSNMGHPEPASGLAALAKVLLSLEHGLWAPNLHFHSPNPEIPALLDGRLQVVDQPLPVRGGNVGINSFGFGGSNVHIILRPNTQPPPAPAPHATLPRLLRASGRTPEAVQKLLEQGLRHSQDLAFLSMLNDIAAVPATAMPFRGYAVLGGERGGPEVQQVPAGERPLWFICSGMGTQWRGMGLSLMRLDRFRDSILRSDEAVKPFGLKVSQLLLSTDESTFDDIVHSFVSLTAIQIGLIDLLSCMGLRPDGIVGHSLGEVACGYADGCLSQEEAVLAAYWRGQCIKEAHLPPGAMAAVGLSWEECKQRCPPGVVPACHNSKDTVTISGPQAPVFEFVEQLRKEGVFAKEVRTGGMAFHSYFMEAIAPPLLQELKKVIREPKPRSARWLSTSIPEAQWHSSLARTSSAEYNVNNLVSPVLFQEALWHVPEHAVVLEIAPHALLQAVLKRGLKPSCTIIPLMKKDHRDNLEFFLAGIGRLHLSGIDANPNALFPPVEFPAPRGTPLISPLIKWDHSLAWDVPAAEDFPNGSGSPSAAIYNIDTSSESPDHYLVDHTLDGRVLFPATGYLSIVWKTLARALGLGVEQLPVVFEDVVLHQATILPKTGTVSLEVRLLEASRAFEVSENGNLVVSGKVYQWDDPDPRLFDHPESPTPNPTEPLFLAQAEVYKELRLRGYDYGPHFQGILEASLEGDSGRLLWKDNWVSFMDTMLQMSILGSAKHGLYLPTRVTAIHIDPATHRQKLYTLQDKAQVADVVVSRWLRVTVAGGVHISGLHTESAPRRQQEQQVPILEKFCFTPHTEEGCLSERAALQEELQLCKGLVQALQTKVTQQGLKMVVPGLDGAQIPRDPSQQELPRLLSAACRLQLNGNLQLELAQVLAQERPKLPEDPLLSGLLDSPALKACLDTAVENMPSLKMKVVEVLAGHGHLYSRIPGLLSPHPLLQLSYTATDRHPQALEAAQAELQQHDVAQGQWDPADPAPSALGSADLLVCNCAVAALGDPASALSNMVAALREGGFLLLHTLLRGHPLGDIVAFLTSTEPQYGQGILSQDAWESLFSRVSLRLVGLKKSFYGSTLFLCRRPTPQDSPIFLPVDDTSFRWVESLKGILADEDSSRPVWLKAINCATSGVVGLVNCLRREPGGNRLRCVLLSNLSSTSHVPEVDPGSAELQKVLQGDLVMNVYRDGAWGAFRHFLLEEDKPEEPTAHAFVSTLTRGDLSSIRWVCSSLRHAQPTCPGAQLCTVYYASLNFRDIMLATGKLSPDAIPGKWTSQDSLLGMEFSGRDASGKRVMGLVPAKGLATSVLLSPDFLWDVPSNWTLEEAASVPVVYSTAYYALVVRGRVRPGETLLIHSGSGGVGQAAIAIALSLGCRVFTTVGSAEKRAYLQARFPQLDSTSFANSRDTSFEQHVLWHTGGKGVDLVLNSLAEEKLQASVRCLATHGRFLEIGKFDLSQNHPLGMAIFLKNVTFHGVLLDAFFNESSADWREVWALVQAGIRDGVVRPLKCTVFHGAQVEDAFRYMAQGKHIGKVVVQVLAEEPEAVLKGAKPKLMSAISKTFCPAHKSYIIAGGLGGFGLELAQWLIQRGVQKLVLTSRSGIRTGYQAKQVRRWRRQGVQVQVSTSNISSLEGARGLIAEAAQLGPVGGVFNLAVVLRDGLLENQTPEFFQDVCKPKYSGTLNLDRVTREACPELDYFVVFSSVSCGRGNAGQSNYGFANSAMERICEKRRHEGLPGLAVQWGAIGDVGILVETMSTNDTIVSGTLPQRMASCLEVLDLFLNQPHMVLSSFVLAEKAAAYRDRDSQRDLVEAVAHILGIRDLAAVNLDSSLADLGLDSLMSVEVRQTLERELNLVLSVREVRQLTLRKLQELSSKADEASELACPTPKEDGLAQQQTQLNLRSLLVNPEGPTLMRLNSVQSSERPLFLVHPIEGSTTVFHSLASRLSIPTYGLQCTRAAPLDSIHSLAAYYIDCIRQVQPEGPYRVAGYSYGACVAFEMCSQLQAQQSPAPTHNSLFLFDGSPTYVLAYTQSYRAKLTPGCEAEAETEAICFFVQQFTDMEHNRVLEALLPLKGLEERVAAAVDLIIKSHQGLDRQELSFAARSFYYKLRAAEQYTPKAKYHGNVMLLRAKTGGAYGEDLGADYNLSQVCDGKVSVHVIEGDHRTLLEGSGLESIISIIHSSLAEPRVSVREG

[15] = HepG2 cell cytotoxicity, dose response, cytotoxicity control for Shn3 inhibitor project, CellTiter-Glo, cherry-picked (AID 624134); type: functional, cell-based
[16] = control 3'UTR Renilla luciferase suppression, dose response, counter-screen for Shn3 inhibitor project, cell-based, Clone20-Shn3RL, cherry-picked (AID 624133); type: functional
[17] = target: T5, Fatty acid synthase; experiment: FAS thioesterase domain inhibitors, dose response, biochemical, endpoint fluorescence intensity, uHTS hits (AID 624327); type: functional;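 note: fluorescence from hydrolysis of an O-methyl fluorescein acyl ester substrate by the enzyme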
[18] = Shn3 3'UTR reporter inhibitors, dose response, cell-based, Clone20 osteoblasts, firefly luciferase, cherry-picked (AID 624132); type: functional;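 note: firefly luciferase luminescence from reporter carrying the Shn3 3'UTR in osteoblasts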
[19] = test system: CHO; experiment: cytotoxicity in TLR9-MyD88 CHO cells, dose response, cytotoxicity control for TLR9-MyD88 binding inhibitor project, cell-based, luminescence (AID 588339); type: functional, hamster; conditions: Cricetulus griseus;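 note: CHO cells stably coexpressing TLR9 and MyD88 fusions from primary screen; compound exposure lasted 48 hours before viability readout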
[20] = growth suppression of beta-catenin-knockout colon cells, dose response, cell-based, HCT116, human colon tumor (AID 1045); type: functional;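 note: HCT116 colon tumor cells with beta catenin knocked out; cells exposed to compound for 60 hours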
[21] = growth suppression of PTEN-null colon cells, dose response, cell-based, HCT116 PTEN knockout (AID 1047); type: functional;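 note: HCT116 colon tumor cells with PTEN knocked out; cells exposed to compound for 60 hours before readout; potency for loss of cell viability measured by luminescence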
[22] = target: T6, Zinc finger protein mex-5 (Caenorhabditis elegans, UniProt Q9XUB2); experiment: MEX-5/TCR-2 RNA interaction inhibitors, dose response, biochemical, C. elegans, fluorescence polarization (AID 1960)
T6 sequence (Q9XUB2 whole entry): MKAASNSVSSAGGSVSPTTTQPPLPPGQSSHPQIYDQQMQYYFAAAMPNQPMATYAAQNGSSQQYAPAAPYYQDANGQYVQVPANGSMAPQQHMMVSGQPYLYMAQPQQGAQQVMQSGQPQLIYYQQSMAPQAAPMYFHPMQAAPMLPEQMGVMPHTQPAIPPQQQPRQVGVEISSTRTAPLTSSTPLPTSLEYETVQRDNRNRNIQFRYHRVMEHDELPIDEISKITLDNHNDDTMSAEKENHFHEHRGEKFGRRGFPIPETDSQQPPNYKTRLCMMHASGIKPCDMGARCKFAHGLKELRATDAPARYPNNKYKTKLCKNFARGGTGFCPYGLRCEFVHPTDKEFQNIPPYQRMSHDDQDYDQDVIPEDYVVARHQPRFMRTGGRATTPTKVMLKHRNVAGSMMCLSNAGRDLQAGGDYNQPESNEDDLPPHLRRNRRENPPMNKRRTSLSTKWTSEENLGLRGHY

[23] = target: T7, RNA-binding protein pos-1 (Caenorhabditis elegans, UniProt G5EF15); experiment: inhibitors of POS-1/mex-3 RNA binding, dose response, biochemical, fluorescence polarization (AID 1964);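 note: purified POS-1 fused to maltose binding protein made in E. coli; potency of compounds blocking POS-1 binding to fluorescent RNA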
T7 sequence (G5EF15 whole entry): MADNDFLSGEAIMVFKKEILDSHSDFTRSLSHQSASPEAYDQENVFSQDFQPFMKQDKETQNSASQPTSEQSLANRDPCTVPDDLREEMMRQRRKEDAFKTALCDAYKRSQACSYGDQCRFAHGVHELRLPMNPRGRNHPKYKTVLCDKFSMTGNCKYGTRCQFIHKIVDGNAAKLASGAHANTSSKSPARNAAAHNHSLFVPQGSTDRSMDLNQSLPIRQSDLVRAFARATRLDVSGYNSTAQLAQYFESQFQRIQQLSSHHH

O=C(Nc1nc2ccccc2s1)c1cc2ccccc2s1
active: IC50 [1] 0.589 µM | IC50 [2] 0.67 µM | IC50 [3] 0.49 µM | IC50 [4] 0.543 µM | IC50 [5] 0.51 µM | IC50 [6] 0.66 µM | IC50 [7] 0.58 µM

Fc1ccc(CNC(=S)NCc2ccccc2)cc1
active: IC50 [8] 18.4 µM | IC50 [9] 10.6 µM

COc1ccc(C(CC(=O)NCc2ccccc2)C(C)C)cc1 (stereo unspecified)
active: IC50 [8] 8.14 µM | IC50 [9] 7.25 µM

CCCNC(=O)c1nnsc1S(=O)(=O)c1ccc(Cl)cc1
inactive: IC50 [13] 16.3 µM
active: AC50 [10] 0.602 µM | EC50 [11] 9.54 µM | AC50 [12] 11.7 µM | IC50 [14] 10.4 µM | AC50 [15] 16.4 µM | AC50 [16] 2.88 µM | IC50 [17] 12.7 µM | AC50 [18] 3.63 µM | IC50 [19] 2.45 µM

CCC(NC(C)C)C(O)c1ccc(O)c(O)c1 (stereo unspecified) [ISOETHARINE MESYLATE]
> 300 µM (not active): EC50 [23]
active: EC50 [20] 20.7 µM | EC50 [11] 3.84 µM | EC50 [21] 24.1 µM | EC50 [22] 125 µM
